In US5395840A, “Heterocyclically substituted phenyl-cyclohexane-carboxylic acid derivatives” (Bayer Aktiengesellschaft, priority 1993, dated 1995) one finds Ki and IC50 data, which are given here for 8 molecules.

One assay concerns the target T1, Angiotensin II Receptor (Bos taurus, UniProt P25104).
T1 construct: Adrenal gland cortices from cattle (AGCs), which have been freshly removed and carefully freed from gland medulla; from tissue; host or cells: bovine adrenal gland cortex, partially purified membrane fractions
T1 sequence (P25104 1-359): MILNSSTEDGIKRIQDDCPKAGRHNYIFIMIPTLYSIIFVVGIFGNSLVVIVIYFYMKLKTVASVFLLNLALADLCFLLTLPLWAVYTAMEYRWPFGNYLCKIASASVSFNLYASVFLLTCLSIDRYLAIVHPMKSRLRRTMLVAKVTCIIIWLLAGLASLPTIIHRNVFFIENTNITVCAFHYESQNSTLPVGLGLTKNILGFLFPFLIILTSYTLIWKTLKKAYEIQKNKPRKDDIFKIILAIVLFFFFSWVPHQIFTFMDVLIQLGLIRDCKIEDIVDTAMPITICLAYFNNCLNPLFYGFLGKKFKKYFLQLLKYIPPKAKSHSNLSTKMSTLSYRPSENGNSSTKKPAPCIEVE
Nature of the assay: Interaction with the angiotensin II receptor in membrane fractions of the adrenal gland cortex (bovine), 3H-angiotensin II binding. The note with it: 3H-angiotensin II (3-5 nM), bovine adrenal gland cortex membranes, 60 min at room temperature, pH 7.2. The method, then: Adrenal gland cortices from cattle (AGCs), which have been freshly removed and carefully freed from gland medulla, are comminuted in sucrose solution (0.32M) with the aid of an Ultra-Turrax (Janke & Kunkel, Staufen i.B.) to give a coarse membrane homogenate and partially purified to give membrane fractions in two centrifugation steps.
The receptor binding investigations are carried out on partially purified membrane fractions of bovine AGC using radioactive angiotensin II in an assay volume of 0.25 ml, which specifically contains the partially purified membranes (50-80 μg), ^3 H-angiotensin II (3-5 nM), test buffer solution (50 mM Tris, pH 7.2, 5 mM MgCl2) and the substances to be investigated. After an incubation period of 60 min at room temperature, the unbound radioactivity of the samples is separated by means of moistened glass fiber filters (Whatman GF/C) and the bound radioactivity is measured […] in a scintillation cocktail after washing the protein with ice-cold buffer solution (50 mM Tris/HCl, pH 7.4, 5% PEG 6000). The raw data were analysed using computer programs to give Ki or IC50 values (Ki : IC50 values corrected for the radioactivity used; IC50 values: concentration at which the substance to be investigated causes a 50% inhibition of the specific binding of the radioligand).

For assay [1], the system named is contractions induced by AII (isolated rabbit aorta rings). Nature of the assay: Inhibition of the vascular contraction in isolated rabbit aorta rings in vitro, contractions induced by angiotensin II. It is filed as cell-based. The note with it: Oryctolagus cuniculus, based on the 3rd = submaximal agonist concentration, read-out: IC50 against contractions induced by: AII. The method, then:
Rabbits of either sex are stunned by a blow to the back of the head and bled out, or in some cases anaesthetized with Nembutal (about 60-80 mg/kg i.v.) and sacrificed by opening the thorax. The thoracic aorta is removed, freed from adhering connective tissue, divided into ring segments 1.5 mm wide and individually transferred under an initial loading of about 3.5 g to 10 ml organ baths containing Krebs-Henseleit nutrient solution, aerated with 95% O2 /5% CO2 and temperature-controlled at 37° C., of the following composition: 119 mmol/l of NaCl; 2.5 mmol/l of CaCl2 ×2H2 O; 1.2 mmol/l of KH2 PO4; 10 mmol/l of glucose; 4.8 mmol/l of KCl; 1.4 mmol/l of MgSO4 ×7H2 O and 25 mmol/l of NaHCO3.
The contractions are determined isometrically by means of Statham UC2 cells via bridge amplifiers (ifd Mulheim or DSM Aalen) and digitalized by means of A/D converters (System 570, Keithley Munich) and assessed. The agonist dose response curves (DRCs) are plotted hourly. With each DRC, 3 or 4 individual concentrations are applied to the baths =at a 4 min interval. […]
The height of the 3rd DRC, in a normal case, is used as a reference quantity for the assessment of the test substance to be investigated in further runs, which substance is applied to the baths in the following DRCs in each case in increasing dose at the start of the incubation period. […]

The test system of the next assay is smooth muscle cells. Nature of the assay: Inhibition of the proliferation of smooth muscle cells (3H-thymidine incorporation). It is filed as cell-based. The note with it: rat aortic smooth muscle cells, stimulated by 10% FCS. The protocol: To determine the antiproliferative action of the compounds, smooth muscle cells are used which are obtained from the aortas of rats by the media explant technique [R. Ross, J. Cell. Biol. 50., 172, 1971]. The cells are inoculated into suitable culture dishes, as a rule 96-hole plates, and cultured at 37° C. in 5% CO2 for 2-3 days in medium 199 containing,7.5% FCS and 7.59% NCS, 2 mM L-glutamine and 15 mM HEPES, pH 7.4. The cells are then synchronized for 2-3 days by withdrawal of serum and then stimulated into growth using serum or other factors. Test compounds are simultaneously added. After 16-20 hours, 1 μCi ^3 H-thymidine is added and after a further 4 hours the incorporation of this substance into the TCA-precipitable DNA of the cells is determined. To determine the IC50 values, the active compound concentration is calculated which, on sequential dilution of the active compound, causes semi-maximum inhibition of the thymidine incorporation produced by 10% FCS.

Turning to `CC(C)(C)OC(=O)[C@@H]1CCCC[C@H]1c1ccc(Cn2c(-c3ccccc3)nc3cccnc32)cc1` (relative stereo) [Example 9], the Ki (in general, a dissociation constant, usually derived from enzyme kinetics or from competition with a known ligand) at Angiotensin II Receptor is 47 nM. Besides, the concentration for half-maximal inhibition (IC50) (commonly the concentration needed to halve the response being measured) in assay [1] was determined as 260 nM.

Regarding `O=C(N[C@H](CO)c1ccccc1)C1CCCCC1c1ccc(Cn2c(C3CC3)nc3cccnc32)cc1` (single isomer, unassigned) [Example 16], the IC50 in the assay on smooth muscle cells stood at 410 nM.

Turning to `O=C(N[C@H](CO)c1ccccc1)C1CCCCC1c1ccc(Cn2c(C3CC3)nc3cccnc32)cc1` (single isomer, unassigned) [Example 17], in the assay with smooth muscle cells, the IC50 was 2 nM.

Consider `NC(=O)C(NC(=O)C1CCCCC1c1ccc(Cn2c(C3CC3)nc3cccnc32)cc1)c1ccccc1` (single isomer, unassigned) [Example 21], for which inhibition with smooth muscle cells (Rattus norvegicus) was half-maximal at 7 nM (IC50).

Molecule `O=C(N[C@H](CO)c1ccccc1)C1CCCCC1c1ccc(Cn2c(-c3ccccc3)nc3cccnc32)cc1` (stereo partly shown) [Example 25] showed an IC50 in the assay with smooth muscle cells (Rattus norvegicus) of 26 nM.

As for `CCCCc1nc2cc(Br)cnc2n1Cc1ccc(C2CCCCC2C(=O)N[C@H](CO)c2ccccc2)cc1` (stereo partly shown) [Example 29], the IC50 in the assay on smooth muscle cells (Rattus norvegicus) was found to be 4 nM.

`CCCCc1nc2ccccc2n1Cc1ccc(C2CCCCC2C(=O)N[C@H](CO)c2ccccc2)cc1` (stereo partly shown) [Example 30] came in with a Ki on Angiotensin II Receptor of 19 nM. Further, the half-inhibitory concentration (IC50) in assay [1] was found to be 220 nM.

As to `CCCCc1nc2ccccc2n1Cc1ccc(C2CCCCC2C(=O)N[C@H](CO)c2ccccc2)cc1` (stereo partly shown) [Example 31], the IC50 with smooth muscle cells (Rattus norvegicus) was determined as 3 nM.
